According to US8785655B2, “Ionic liquid solvents” (Dublin City University, priority 2009, dated 2014):

Assays:
[1] = test system: Staphylococcus aureus CCM 4516/08; assay: Screen against bacteria, MIC/IC80; type: cell-based; details: SA
[2] = test system: Staphylococcus aureus H 5996/08 Methiciline-resistant; assay: Screen against bacteria, MIC/IC80; type: cell-based; details: MRSA
[3] = test system: Staphylococcus epidermidis H 6966/08; assay: Screen against bacteria, MIC/IC80; type: cell-based; details: SE
[4] = test system: Enterococcus sp. J 14365/08; assay: Screen against bacteria, MIC/IC80; type: cell-based; details: EF
Escherichia coli CCM4517 = assay: Screen against bacteria, MIC/IC80; type: cell-based; details: EC
[5] = test system: Klebsiella pneumoniae D 11750/08; assay: Screen against bacteria, MIC/IC80; type: cell-based; details: KP
[6] = test system: Klebsiella pneumoniae J 14368/08 ESBL-positive; assay: Screen against bacteria, MIC/IC80; type: cell-based; details: KP-E
[7] = test system: Pseudomonas aeruginosa CCM 1961; assay: Screen against bacteria, MIC/IC80; type: cell-based; details: PA
[8] = test system: Candida albicans ATCC 44859; assay: In vitro antifungal activity, MIC by microdilution (NCCLS M27-A)
Experimental: In vitro antifungal activities of the compounds were evaluated on the collection of fungal strains deposited at the Department of Biological and Medical Sciences, Faculty of Pharmacy, Charles University, Czech Republic. All the isolates were maintained on Sabouraud dextrose agar prior to being tested.
Minimum inhibitory concentrations (MICs) were determined by the microdilution format of the NCCLS M27-A guidelines. […] RPMI 1640 (Sevapharma, Prague) medium supplemented with L-glutamine and buffered with 0.165 M morpholinepropanesulfonic acid to pH 7.0 was used as the test medium. The wells of the microdilution tray contained 100 μl of the RPMI 1640 medium with 2-fold serial dilutions of the compounds (1000 to 0.24 μmol/l for the new compounds) and 100 μl of inoculum suspension. Fungal inoculum in RPMI 1640 was prepared to give a final concentration of 5×103±0.2 cfu·ml-1. The trays were incubated at 35° C. and MICs were read visually for filamentous fungi and photometrically for yeasts as an optical density (OD) at 540 nm after 24 h and 48 h. The MICs were defined as 80% inhibition of the growth of control. MICs were determined twice and in duplicate. The deviations from the usually obtained were no higher than the nearest concentration value up and down the dilution scale.

[9] = test system: Candida albicans ATCC 90028; assay: as above
[10] = test system: Candida parapsilosis ATCC 22019; assay: as above; details: CP
Candida krusei ATCC 6258 = assay: as above
Candida krusei E28 = assay: as above
Candida tropicalis 156 = assay: as above; details: CT
Candida glabrata 20/l = assay: as above; details: CG
[11] = test system: Candida lusitaniae 2446/l; assay: as above; details: CL
[12] = test system: Aspergillus fumigatus 231; assay: as above; details: AF
Absidia corymbifera 272 = assay: as above; details: AC
[13] = test system: Trichophyton mentagrophytes 445; assay: as above; details: TM

SMILES	MIC/IC80 ([1]; 24 h) [mM]	MIC/IC80 ([1]; 48 h) [mM]	MIC/IC80 ([2]; 24 h) [mM]	MIC/IC80 ([2]; 48 h) [mM]	MIC/IC80 ([3]; 24 h) [mM]	MIC/IC80 ([3]; 48 h) [mM]	MIC/IC80 ([4]; 24 h) [mM]	MIC/IC80 ([4]; 48 h) [mM]	MIC/IC80 (Escherichia coli CCM4517; 24 h) [mM]	MIC/IC80 (Escherichia coli CCM4517; 48 h) [mM]	MIC/IC80 ([5]; 24 h) [mM]	MIC/IC80 ([5]; 48 h) [mM]	MIC/IC80 ([6]; 24 h) [mM]	MIC/IC80 ([6]; 48 h) [mM]	MIC/IC80 ([7]; 24 h) [mM]	MIC/IC80 ([7]; 48 h) [mM]	MIC/IC80 ([8]; CA1, 24 h) [mM]	MIC/IC80 ([8]; CA1, 48 h) [mM]	MIC/IC80 ([9]; CA2, 24 h) [mM]	MIC/IC80 ([9]; CA2, 48 h) [mM]	other results
CCOCCOC(=O)C(OC(=O)Cn1cc[n+](C)c1)c1ccccc1.[Br-] (stereo not drawn) [KG818, RS-3-methyl-1-[1-(ethoxyethoxycarbonyl)-1-phenylmethoxycarbonylmethyl]imidazolium bromide]	>1	>1	>1	>1	>1	>1	>1	>1	>1	>1	>1	>1	>1	>1	>1	>1	>1	>1	>1	>1	MIC/IC80 ([10]; 24 h): >1 mM; MIC/IC80 ([10]; 48 h): >1 mM; MIC/IC80 (Candida krusei ATCC 6258; CK1, 24 h): >1 mM; MIC/IC80 (Candida krusei ATCC 6258; CK1, 48 h): >1 mM; MIC/IC80 (Candida krusei E28; CK2, 24 h): >1 mM; MIC/IC80 (Candida krusei E28; CK2, 48 h): >1 mM; MIC/IC80 (Candida tropicalis 156; 24 h): >1 mM; MIC/IC80 (Candida tropicalis 156; 48 h): >1 mM; MIC/IC80 (Candida glabrata 20/l; 24 h): >1 mM; MIC/IC80 (Candida glabrata 20/l; 48 h): >1 mM; MIC/IC80 ([11]; 24 h): >1 mM; MIC/IC80 ([11]; 48 h): >1 mM; MIC/IC80 ([12]; 24 h): >1 mM; MIC/IC80 ([12]; 48 h): >1 mM; MIC/IC80 (Absidia corymbifera 272; 24 h): >1 mM; MIC/IC80 (Absidia corymbifera 272; 48 h): >1 mM; MIC/IC80 ([13]; 72 h): >1 mM; MIC/IC80 ([13]; 120 h): >1 mM
CCCCCOC(=O)[C@@H](OC(=O)Cn1cc[n+](C)c1)c1ccccc1.[Br-] [KG824, S-3-methyl-1-[1-(pentoxycarbonyl)-1-phenylmethoxycarbonylmethyl]imidazolium bromide]	>1	>1	>1	>1	>1	>1	>1	>1	>1	>1	>1	>1	>1	>1	>1	>1	0.5	>1	1	>1	MIC/IC80 ([10]; 24 h): >1 mM; MIC/IC80 ([10]; 48 h): >1 mM; MIC/IC80 (Candida krusei ATCC 6258; CK1, 24 h): 1 mM; MIC/IC80 (Candida krusei ATCC 6258; CK1, 48 h): >1 mM; MIC/IC80 (Candida krusei E28; CK2, 24 h): 1 mM; MIC/IC80 (Candida krusei E28; CK2, 48 h): >1 mM; MIC/IC80 (Candida tropicalis 156; 24 h): >1 mM; MIC/IC80 (Candida tropicalis 156; 48 h): >1 mM; MIC/IC80 (Candida glabrata 20/l; 24 h): 1 mM; MIC/IC80 (Candida glabrata 20/l; 48 h): >1 mM; MIC/IC80 ([11]; 24 h): >1 mM; MIC/IC80 ([11]; 48 h): >1 mM; MIC/IC80 ([12]; 24 h): 1 mM; MIC/IC80 ([12]; 48 h): 1 mM; MIC/IC80 (Absidia corymbifera 272; 24 h): 1 mM; MIC/IC80 (Absidia corymbifera 272; 48 h): 1 mM; MIC/IC80 ([13]; 72 h): 0.5 mM; MIC/IC80 ([13]; 120 h): 0.5 mM
CCOCCOC(=O)[C@@H](OC(=O)Cn1cc[n+](C)c1)c1ccccc1.[Br-] [KG826, S-3-methyl-1-[1-(ethoxyethoxycarbonyl)-1-phenylmethoxycarbonylmethyl]imidazolium bromide]	>1	>1	>1	>1	>1	>1	>1	>1	>1	>1	>1	>1	>1	>1	>1	>1	>1	>1	>1	>1	MIC/IC80 ([10]; 24 h): >1 mM; MIC/IC80 ([10]; 48 h): >1 mM; MIC/IC80 (Candida krusei ATCC 6258; CK1, 24 h): >1 mM; MIC/IC80 (Candida krusei ATCC 6258; CK1, 48 h): >1 mM; MIC/IC80 (Candida krusei E28; CK2, 24 h): >1 mM; MIC/IC80 (Candida krusei E28; CK2, 48 h): >1 mM; MIC/IC80 (Candida tropicalis 156; 24 h): >1 mM; MIC/IC80 (Candida tropicalis 156; 48 h): >1 mM; MIC/IC80 (Candida glabrata 20/l; 24 h): >1 mM; MIC/IC80 (Candida glabrata 20/l; 48 h): >1 mM; MIC/IC80 ([11]; 24 h): >1 mM; MIC/IC80 ([11]; 48 h): >1 mM; MIC/IC80 ([12]; 24 h): >1 mM; MIC/IC80 ([12]; 48 h): >1 mM; MIC/IC80 (Absidia corymbifera 272; 24 h): >1 mM; MIC/IC80 (Absidia corymbifera 272; 48 h): >1 mM; MIC/IC80 ([13]; 72 h): >1 mM; MIC/IC80 ([13]; 120 h): >1 mM
